# Laboratory results published in PubChem BioAssay (NCI).
# Where “and” joins values, the source holds several entries; their conditions need not be identical. Equal entries are not always repeated.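 Each compound was tested at five concentrations against cells in 96-well plates for 48 hours. GI50 marks 50% less growth. TGI: total growth inhibition.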
# How the values were obtained:
# Assay in all cases: NCI-60 cell line screen, 48 h
# UO-31 renal = test system: UO-31 renal
# HCT-116 colon = test system: HCT-116 colon
# HOP-92 NSCLC = test system: HOP-92 NSCLC
# RPMI-8226 leukemia = test system: RPMI-8226 leukemia
# MCF7 breast = test system: MCF7 breast
# SF-539 CNS = test system: SF-539 CNS
# KM12 colon = test system: KM12 colon
# PC-3 prostate = test system: PC-3 prostate
# SK-MEL-2 melanoma = test system: SK-MEL-2 melanoma
# SNB-75 CNS = test system: SNB-75 CNS
SMILES,TGI (UO-31 renal) [µM],TGI (HCT-116 colon),TGI (HOP-92 NSCLC) [µM],TGI (RPMI-8226 leukemia),TGI (MCF7 breast) [µM],TGI (SF-539 CNS) [µM],TGI (KM12 colon) [µM],TGI (PC-3 prostate) [µM],TGI (SK-MEL-2 melanoma) [µM],GI50 (UO-31 renal) [µM],GI50 (SNB-75 CNS) [µM],TGI (SNB-75 CNS) [µM],GI50 (HCT-116 colon) [µM],GI50 (RPMI-8226 leukemia) [µM],GI50 (MCF7 breast) [µM],GI50 (SF-539 CNS) [µM],GI50 (KM12 colon) [µM],GI50 (PC-3 prostate) [µM],GI50 (HOP-92 NSCLC) [µM],GI50 (SK-MEL-2 melanoma)
Cc1nc(C)c(N2CCN(CN)CC2)c(=O)[nH]1,> 100,> 100 µM,> 100,> 100 µM,> 100,> 100,> 100,> 100,–,–,–,–,–,–,–,–,–,–,–,–
CC(c1ccccc1)n1cncc1C(=O)NN1CCN(C)CC1 (stereo not given),–,> 10 µM,–,> 10 µM,> 10,> 10,> 10,> 10,> 10,–,–,–,–,–,–,–,–,–,–,–
COc1cc2nc(N3CCC[C@H](NC4=CC(=O)c5ccccc5C4=O)C3)nc(N)c2cc1OC,3.16,4.81 µM,–,4.84 µM,3.3,3.77,3.22,3.67,–,1.49,1.64,3.3,1.64,1.98,1.61,1.94,1.77,1.75,–,–
CCOC(=O)c1c(N2CCCC2)[nH]c(=O)c(C(c2ccc(N(C)C)cc2)c2c(O)c(C(=O)OCC)c(N3CCCC3)[nH]c2=O)c1O,> 100,> 100 µM,> 100,> 100 µM,> 100,> 100,> 100,> 100,–,–,–,> 100,–,–,–,–,–,–,–,–
O=c1[nH]n(CCc2ccccc2CCl)c2ccc([N+](=O)[O-])cc12,> 100,> 100 µM,> 100,> 100 µM,> 100,> 100,> 100,> 100,> 100,–,–,–,–,–,–,–,–,–,–,–
O=C1C=C(N2CCN(c3ncccn3)CC2)C(=O)c2c(O)ccc(O)c21,> 100,> 100 µM,> 100,–,> 100,55.7,> 100,> 100,–,–,–,–,–,–,–,–,–,–,–,–
O=C(O)Cn1c2c(c3c1-c1ccccc1C3=O)C(=O)CCC2,> 100,> 100 µM,> 100,–,> 100,> 100,> 100,–,> 100,> 100,> 100,> 100,> 100,–,> 100,> 100,> 100,–,20,> 100 µM
N/N=C(/N)SCCCCCCCCCCS/C(N)=N/N,78.9,> 100 µM,–,70.8 µM,64.4,> 100,67.3,> 100,52.8,–,–,–,–,–,–,–,–,–,–,–
Cn1c2ccccc2n2c3ncccc3c(=O)cc12,> 100,85.9 µM,> 100,> 100 µM,–,> 100,> 100,–,–,–,–,> 100,–,–,–,–,–,–,–,–
Cc1c(OCc2cccc3ccccc23)ccc2c(=O)cc(SCCN3CCOCC3)oc12,> 100,> 100 µM,> 100,–,> 100,> 100,> 100,> 100,> 100,–,–,> 100,–,–,–,–,–,–,–,–
COc1ccc(/C=c2\[nH]c3nc(=O)c(N4CCCCC4)c(N)n3c2=O)cc1,> 100,> 100 µM,> 100,> 100 µM,> 100,> 100,> 100,–,–,–,–,78.7,–,–,–,–,–,–,–,–
Cc1ccc(-n2nncc2[Si](C)(C)C)s1,> 100,> 100 µM,> 100,> 100 µM,> 100,> 100,–,> 100,> 100,–,–,–,–,–,–,–,–,–,–,–
Oc1c(Cl)cc2cc1-c1cc(cc(Cl)c1O)CCc1c(cc(Cl)c(O)c1Cl)-c1cc(Cl)c(c(Cl)c1O)/C=C\2,–,15.3 µM,34.7,> 50 µM,–,–,15.1,20.3,17.5,–,–,17.6,–,–,–,–,–,–,–,–
CC(C)[C@H](C)/C=C/[C@@H](C)C1CC[C@H]2[C@@]34C=C[C@]5(C[C@@H](O)CC[C@]5(C)[C@H]3CC[C@]12C)OO4 (stereo not given in full),> 100,42.8 µM,92.3,–,> 100,> 100,> 100,–,88.8,–,–,> 100,–,–,–,–,–,–,–,–
O=C(O)CSC1=NNC2(C(=O)N1)c1ccccc1-c1ccccc12,> 10,> 10 µM,> 10,> 10 µM,> 10,> 10,> 10,> 10,–,–,–,> 10,–,–,–,–,–,–,–,–
COc1ccc(/C=C2\CCCc3ccccc3C2=O)cc1,> 100,20.5 µM,88.1,21.5 µM,99.2,5.11,17.6,> 100,–,–,–,> 82.3,–,–,–,–,–,–,–,–
C=C(Br)C[N+]12CN3CN(CN(C3)C1)C2,> 100,> 100 µM,> 100,> 100 µM,–,> 100,> 100,> 100,> 100,–,–,> 100,–,–,–,–,–,–,–,–
c1ccc2c(Nc3ncco3)cccc2c1,> 10,> 10 µM,> 10,–,> 10,> 10,> 10,> 10,–,–,–,> 10,–,–,–,–,–,–,–,–

SMILES,TGI (UO-31 renal) [µM],TGI (HCT-116 colon),TGI (HOP-92 NSCLC) [µM],TGI (RPMI-8226 leukemia),TGI (MCF7 breast) [µM],TGI (SF-539 CNS) [µM],TGI (KM12 colon) [µM],TGI (PC-3 prostate) [µM],TGI (SK-MEL-2 melanoma) [µM],GI50 (UO-31 renal) [µM],GI50 (SNB-75 CNS) [µM],TGI (SNB-75 CNS) [µM],GI50 (HCT-116 colon) [µM],GI50 (RPMI-8226 leukemia) [µM],GI50 (MCF7 breast) [µM],GI50 (SF-539 CNS) [µM],GI50 (KM12 colon) [µM],GI50 (PC-3 prostate) [µM],GI50 (HOP-92 NSCLC) [µM],GI50 (SK-MEL-2 melanoma)
CC(C)(C)OC(=O)C(C#N)C(=O)c1ccc(C(=O)O)[nH]1 (stereo not given),> 100,> 100 µM,73.6,> 100 µM,–,> 100,> 100,> 100,68.5,–,–,> 100,–,–,–,–,–,–,–,–
CC(CCc1nc2ccccc2s1)(c1ccc(O)cc1)c1ccc(O)cc1,31.3,34 µM,36.7,–,–,–,33.8,27.9,31.4,–,–,34,–,–,–,–,–,–,–,–
COC(=O)c1c2c(cc3c1CC1(Cc4cc5c(c(C)c4C1)CCC5)C3)CCC2 (stereo not given),> 100,> 100 µM,> 100,> 100 µM,> 100,> 100,–,> 100,> 100,–,–,–,–,–,–,–,–,–,–,–
CC(=O)OCC1OC(SC2=NC(=O)CS2)C(OC(C)=O)C(OC(C)=O)C1OC(C)=O (stereo not given),> 100,–,–,90 µM and > 100 µM,> 100,> 100,> 100,> 100,> 100,–,–,> 100,–,–,–,–,–,–,–,> 100 µM and 27.1 µM
O=C1c2ccncc2C(=O)c2c(O)ccc(O)c21,29.7,10.3 µM,32.4,30.4 µM,–,13.4,32.8,–,–,–,–,49.1,–,–,–,–,–,–,–,–
Cc1nc2ccc(Cl)cc2c2c1CCO2,> 100,> 100 µM,> 100,> 100 µM,> 100,> 100,> 100,> 100,–,–,–,> 100,–,–,–,–,–,–,–,–
C=CC(C)(C)/C=C/c1ccc(O)cc1,–,> 100 µM,> 100,70.1 µM,> 100,> 100,> 100,89.4,60.5,–,–,–,–,–,–,–,–,–,–,–
CC(=O)/C=C/c1ccccc1,> 100,> 100 µM,–,> 100 µM,> 100,64.6,97.9,> 100,> 100,–,–,> 100,–,–,–,–,–,–,–,–
C/C(=C\Cc1ccc(F)cc1)CCCCCC/C(C)=C/Cc1ccc(F)cc1,23.1,33 µM,23.5,–,45.8,31.8,5.61,33.3,37.2,–,–,35,–,–,–,–,–,–,–,–
Cc1nc2ccc(Br)cc2c(=O)n1-c1ccc(N)cc1,> 100,> 100 µM,> 100,–,> 100,> 100,> 100,> 100,> 100,–,–,> 100,–,–,–,–,–,–,–,–
COC(=O)[C@@H](NS(=O)(=O)CC12CCC(CC1)C2(C)C)C(C)(C)C,> 100,> 100 µM,> 100,–,> 100,> 100,> 100,–,> 100,–,–,> 100,–,–,–,–,–,–,–,–
COC(=O)C1C(=O)CC(C)(O)C(C(=O)OC)C1c1ccc(N(C)C)cc1 (stereo not given),> 100,21 µM,> 100,–,> 100,–,> 100,> 100,> 100,–,–,> 100,–,–,–,–,–,–,–,–
Cc1cc2nc3ccccc3n2c2ccccc12,–,> 10 µM,–,> 10 µM,> 10,> 10,> 10,> 10,> 10,–,–,> 10,–,–,–,–,–,–,–,–
Cc1cc(C)c2c(c1)C/C(=C\c1cccc(C)c1C(=O)O)C2=O,> 100,> 100 µM,> 100,> 100 µM,–,> 100,> 100,> 100,> 100,–,–,> 100,–,–,–,–,–,–,–,–
c1ccc2c[n+](CCCC[n+]3ccc4ccccc4c3)ccc2c1,–,> 100 µM,–,> 100 µM,> 100,> 100,> 100,> 100,> 100,–,–,> 100,–,–,–,–,–,–,–,–
Cc1ccc(N2C(=O)C3CSCN3C2=O)cc1 (stereo not given),> 100,> 100 µM and 11.7 µM,> 100,> 100 µM,> 100,> 100,> 100,–,> 100,–,–,> 100,> 100,–,–,–,–,–,–,–
CCOC(=O)CCc1cn2cc(Br)nc(OC)c2n1,58.5,> 100 µM,–,> 100 µM,> 100,> 100,> 100,> 100,> 100,–,–,> 100,–,–,–,–,–,–,–,–
CCOc1ccc2nc3nc(=O)[nH]c(C)c3c(NC(C)(CO)CO)c2c1,> 100,> 100 µM,> 100,–,> 100,> 100,> 100,> 100,> 100,–,–,> 100,–,–,–,–,–,–,–,–
